# How the values were obtained:
# Type in all cases: functional
# Aspergillus niger = assay: Antifungal activity against Aspergillus niger MTCC 282 by broth dilution method
# Candida albicans = assay: Antifungal activity against Candida albicans MTCC 227 by broth dilution method
# Aspergillus clavatus = assay: Antifungal activity against Aspergillus clavatus MTCC 1323 by broth dilution method
Compound,MIC (Aspergillus niger) [µg/mL],MIC (Candida albicans) [µg/mL],MIC (Aspergillus clavatus) [µg/mL]
OC(Cn1cncn1)(Cn1cncn1)c1ccc(F)cc1F [FLUCONAZOLE],16,0.5,16
O=c1c2sc(=S)n(-c3ccc(Cl)c(Cl)c3)c2nc(Nc2ccc(Br)cc2)n1-c1ccc(Br)cc1,4,0.8,16
COc1ccc(Nc2nc3c(sc(=S)n3-c3ccc(Cl)c(Cl)c3)c(=O)n2-c2ccc(OC)cc2)cc1,4,0.8,0.8
COc1ccc(-n2c(=S)sc3c(=O)n(-c4ccc(Br)cc4)c(Nc4ccc(Br)cc4)nc32)cc1,4,0.8,0.2
COc1ccc(Nc2nc3c(sc(=S)n3-c3ccc(Br)cc3)c(=O)n2-c2ccc(OC)cc2)cc1,0.4,4,12.8
COc1ccc(Nc2nc3c(sc(=S)n3-c3ccc(OC)cc3)c(=O)n2-c2ccc(OC)cc2)cc1,0.5,4,4
COc1ccc(Nc2nc3c(sc(=S)n3-c3ccccc3OC)c(=O)n2-c2ccc(OC)cc2)cc1,4,16,0.8
NYSTATIN,7,8,7
COc1ccc(-n2c(=S)sc3c(=O)n(-c4ccccc4OC)c(Nc4ccccc4OC)nc32)cc1,0.4,12.8,25.6
CCn1c(=S)sc2c(=O)n(-c3ccc(OC)cc3)c(Nc3ccc(OC)cc3)nc21,0.8,2,16
COc1ccccc1-n1c(=S)sc2c(=O)n(-c3c(C)cccc3C)c(Nc3c(C)cccc3C)nc21,4,4,4
COc1ccccc1Nc1nc2c(sc(=S)n2-c2ccccc2)c(=O)n1-c1ccccc1OC,12.8,4,12.8
COc1ccc(Nc2nc3c(sc(=S)n3-c3ccccc3)c(=O)n2-c2ccc(OC)cc2)cc1,0.8,0.5,0.2
COc1ccc(Nc2nc3c(sc(=S)n3-c3ccc(F)c(Cl)c3)c(=O)n2-c2ccc(OC)cc2)cc1,4,0.4,0.2
O=c1c2sc(=S)n(-c3ccccc3)c2nc(Nc2ccccc2)n1-c1ccccc1,25.6,4,25.6
Cc1ccc(Nc2nc3c(sc(=S)n3-c3ccccc3)c(=O)n2-c2ccc(C)cc2)cc1,12.8,0.8,0.8
O=c1c2sc(=S)n(-c3ccc(F)c(Cl)c3)c2nc(Nc2ccc(Br)cc2)n1-c1ccc(Br)cc1,4,4,4
Cc1cccc(C)c1Nc1nc2c(sc(=S)n2-c2ccccc2)c(=O)n1-c1c(C)cccc1C,25.6,4,4
COc1ccc(-n2c(=S)sc3c(=O)n(-c4ccc(F)cc4)c(Nc4ccc(F)cc4)nc32)cc1,0.5,0.4,0.4

# Source: ChEMBL document CHEMBL3046954, “Identification of important structural features of thiazolo[4,5-d]pyrimidines required for potent antifungal activity” (2011)
